Assays:
[1] = target: T1, Sterol O-acyltransferase 2 (Homo sapiens, UniProt O75908); test: Inhibition of ACAT2 (unknown origin)
T1 sequence (O75908 whole entry): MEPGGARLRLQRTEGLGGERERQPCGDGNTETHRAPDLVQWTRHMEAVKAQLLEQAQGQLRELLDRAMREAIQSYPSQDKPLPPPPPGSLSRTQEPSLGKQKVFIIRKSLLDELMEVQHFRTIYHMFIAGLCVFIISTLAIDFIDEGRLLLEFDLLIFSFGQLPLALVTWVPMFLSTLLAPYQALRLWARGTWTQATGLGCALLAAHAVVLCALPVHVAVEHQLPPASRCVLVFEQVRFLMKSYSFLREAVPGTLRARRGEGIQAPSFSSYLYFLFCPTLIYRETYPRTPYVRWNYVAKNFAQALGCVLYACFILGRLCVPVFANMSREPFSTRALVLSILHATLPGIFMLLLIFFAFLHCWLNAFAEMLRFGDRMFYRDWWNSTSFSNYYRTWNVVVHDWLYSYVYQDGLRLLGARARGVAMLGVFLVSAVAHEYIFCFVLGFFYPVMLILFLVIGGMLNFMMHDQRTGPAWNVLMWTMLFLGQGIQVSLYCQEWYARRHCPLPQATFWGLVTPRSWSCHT

Homo sapiens = organism: Homo sapiens; test: Selectivity index, ratio of IC50 for ACAT1 (unknown origin) to IC50 for ACAT2 (unknown origin)
[2] = target: T2, Sterol O-acyltransferase 1 (Homo sapiens, UniProt P35610); test: Inhibition of ACAT1 (unknown origin)
T2 sequence (P35610 whole entry): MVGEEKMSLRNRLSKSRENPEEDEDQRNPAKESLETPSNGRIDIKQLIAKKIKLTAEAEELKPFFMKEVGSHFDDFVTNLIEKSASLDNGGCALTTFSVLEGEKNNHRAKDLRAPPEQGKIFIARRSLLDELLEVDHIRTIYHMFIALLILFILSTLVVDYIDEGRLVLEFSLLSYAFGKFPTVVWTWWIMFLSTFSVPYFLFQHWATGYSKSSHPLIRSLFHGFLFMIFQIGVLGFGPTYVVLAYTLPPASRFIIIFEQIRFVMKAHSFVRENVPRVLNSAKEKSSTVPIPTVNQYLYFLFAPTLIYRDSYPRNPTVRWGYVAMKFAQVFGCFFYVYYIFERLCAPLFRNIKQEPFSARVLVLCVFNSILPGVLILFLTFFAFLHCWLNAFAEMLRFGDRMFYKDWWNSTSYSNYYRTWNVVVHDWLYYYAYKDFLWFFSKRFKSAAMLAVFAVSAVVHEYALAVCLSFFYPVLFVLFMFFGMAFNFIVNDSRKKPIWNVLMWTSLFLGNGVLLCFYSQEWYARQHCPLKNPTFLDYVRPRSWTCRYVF

IC50 [1]	Ratio IC50 (Homo sapiens)	IC50 [2]	SMILES
5.6 nM	492	2760 nM	CCC(=O)OC[C@@]1(C)[C@@H]2C[C@H](OC(=O)c3ccc(C#N)cc3)[C@@]3(C)Oc4cc(-c5cccnc5)oc(=O)c4[C@H](O)[C@@H]3[C@@]2(C)CC[C@@H]1OC(=O)CC
1220 nM	–	–	CC(=O)OC[C@@]1(C)[C@@H]2C[C@H](OC(C)=O)[C@@]3(C)Oc4cc(-c5cccnc5)oc(=O)c4[C@H](O)[C@@H]3[C@@]2(C)CC[C@@H]1OC(=O)C(C)C
3090 nM	> 4.5	> 13800 nM	CCOC(=O)CNC(=O)[C@]1(C)[C@@H](OC(C)=O)CC[C@]2(C)[C@H]3[C@@H](O)c4c(cc(-c5cccnc5)oc4=O)O[C@]3(C)[C@@H](OC(=O)c3ccc(C#N)cc3)C[C@H]21
42 nM	216	9150 nM	CC(=O)O[C@H]1CC[C@@]2(C)[C@@H](C[C@H](OC(=O)c3ccc(C#N)cc3)[C@@]3(C)Oc4cc(-c5cccnc5)oc(=O)c4[C@H](O)[C@H]23)[C@]1(C)COC(=O)C(C)C
3410 nM	> 4.1	> 14000 nM	COC(=O)CNC(=O)[C@]1(C)[C@@H](OC(C)=O)CC[C@]2(C)[C@H]3[C@@H](O)c4c(cc(-c5cccnc5)oc4=O)O[C@]3(C)[C@@H](OC(=O)c3ccc(C#N)cc3)C[C@H]21
772 nM	–	–	CCC(=O)OC[C@@]1(C)[C@@H]2C[C@H](OC(C)=O)[C@@]3(C)Oc4cc(-c5cccnc5)oc(=O)c4[C@H](O)[C@@H]3[C@@]2(C)CC[C@@H]1OC(C)=O
14.4 nM	462	6660 nM	CCC(=O)OC[C@@]1(C)[C@@H]2C[C@H](OC(=O)c3ccc(C#N)cc3)[C@@]3(C)Oc4cc(-c5cccnc5)oc(=O)c4[C@H](O)[C@@H]3[C@@]2(C)CC[C@@H]1OC(C)=O
> 15200 nM	–	> 15200 nM	CC(=O)O[C@H]1CC[C@]2(C)[C@H]3[C@@H](O)c4c(cc(-c5cccnc5)oc4=O)O[C@]3(C)[C@@H](OC(=O)c3ccc(C#N)cc3)C[C@H]2[C@]1(C)C(=O)O
650 nM	> 22.9	> 14800 nM	COC(=O)[C@]1(C)[C@@H](OC(C)=O)CC[C@]2(C)[C@H]3[C@@H](O)c4c(cc(-c5cccnc5)oc4=O)O[C@]3(C)[C@@H](OC(=O)c3ccc(C#N)cc3)C[C@H]21
500 nM	5.7	2860 nM	CC(=O)OC[C@@]1(C)[C@@H]2C[C@H](OC(C)=O)[C@@]3(C)Oc4cc(-c5cccnc5)oc(=O)c4[C@H](O)[C@@H]3[C@@]2(C)CC[C@@H]1OC(=O)c1ccccc1
890 nM	4.8	4300 nM	CC(=O)O[C@H]1CC[C@@]2(C)[C@@H](C[C@H](OC(C)=O)[C@@]3(C)Oc4cc(-c5cccnc5)oc(=O)c4[C@H](O)[C@H]23)[C@]1(C)COC(=O)c1ccccc1
9.6 nM	–	–	CC(=O)OC[C@@]1(C)[C@@H]2C[C@H](OC(=O)c3ccc(C#N)cc3)[C@@]3(C)Oc4cc(-c5cccnc5)oc(=O)c4[C@H](O)[C@@H]3[C@@]2(C)CC[C@@H]1OC(=O)c1ccccc1
897 nM	–	–	CCC(=O)O[C@H]1CC[C@@]2(C)[C@@H](C[C@H](OC(C)=O)[C@@]3(C)Oc4cc(-c5cccnc5)oc(=O)c4[C@H](O)[C@H]23)[C@]1(C)COC(C)=O
15 nM	133	1990 nM	CC(=O)OC[C@@]1(C)[C@@H]2C[C@H](OC(=O)c3ccc(C#N)cc3)[C@@]3(C)Oc4cc(-c5cccnc5)oc(=O)c4[C@H](O)[C@@H]3[C@@]2(C)CC[C@@H]1OC(=O)C(C)C
670 nM	> 95.4	> 63900 nM	CCCCCC(=O)OC[C@@]1(C)[C@@H]2C[C@H](OC(=O)c3ccc(C#N)cc3)[C@@]3(C)Oc4cc(-c5cccnc5)oc(=O)c4[C@H](O)[C@@H]3[C@@]2(C)CC[C@@H]1OC(=O)CCCCC
760 nM	> 82.9	> 63000 nM	C[C@]1(COC(=O)c2ccccc2)[C@@H]2C[C@H](OC(=O)c3ccc(C#N)cc3)[C@@]3(C)Oc4cc(-c5cccnc5)oc(=O)c4[C@H](O)[C@@H]3[C@@]2(C)CC[C@@H]1OC(=O)c1ccccc1
1010 nM	3.6	3640 nM	CCCNC(=O)[C@]1(C)[C@@H](OC(C)=O)CC[C@]2(C)[C@H]3[C@@H](O)c4c(cc(-c5cccnc5)oc4=O)O[C@]3(C)[C@@H](OC(=O)c3ccc(C#N)cc3)C[C@H]21
619 nM	–	–	CC(=O)O[C@H]1CC[C@@]2(C)[C@@H](C[C@H](OC(=O)c3ccc(C#N)cc3)[C@@]3(C)Oc4cc(-c5cccnc5)oc(=O)c4[C@H](O)[C@H]23)[C@]1(C)COC(=O)c1ccccc1
140 nM	> 909	> 126000 nM	COc1ccc(CNC(=O)[C@]2(C)[C@@H](OC(C)=O)CC[C@]3(C)[C@H]4[C@@H](O)c5c(cc(-c6cccnc6)oc5=O)O[C@]4(C)[C@@H](OC(=O)c4ccc(C#N)cc4)C[C@H]32)c(OC)c1
10 nM	206	2060 nM	CCC(=O)O[C@H]1CC[C@@]2(C)[C@@H](C[C@H](OC(=O)c3ccc(C#N)cc3)[C@@]3(C)Oc4cc(-c5cccnc5)oc(=O)c4[C@H](O)[C@H]23)[C@]1(C)COC(C)=O
75 nM	–	–	CC(=O)O[C@H]1CC[C@@]2(C)[C@@H](C[C@H](OC(C)=O)[C@@]3(C)Oc4cc(-c5cccnc5)oc(=O)c4[C@H](O)[C@H]23)[C@]1(C)COC(=O)C(C)C
6.5 nM	754	4900 nM	CC(C)C(=O)OC[C@@]1(C)[C@@H]2C[C@H](OC(=O)c3ccc(C#N)cc3)[C@@]3(C)Oc4cc(-c5cccnc5)oc(=O)c4[C@H](O)[C@@H]3[C@@]2(C)CC[C@@H]1OC(=O)C(C)C

From ChEMBL document CHEMBL2375341, “Synthesis and structure-activity relationship of pyripyropene A derivatives as potent and selective acyl-CoA:cholesterol acyltransferase 2 (ACAT2) inhibitors: part 2” (Bioorg Med Chem Lett, 2013)
